Data as given in patent US20090280068A1, “POLYMORPH OF 8-HYDROXY-5-[(1R)-1-HYDROXY-2-[[(1R)-2-(4-METHOXYPHENYL)-1-METHYLETHYL]AMINO]ETHYL]-2(1H)-QUINOLINONE MONOHYDROCHLORIDE” (Chiesi Farmaceutici S.p.A., priority 2008, published 2009).

Assay: Stability studies: storage under different relative humidity conditions, checked by XRPD pattern
Format: physicochemical
Conditions: solid stored at 25° C., 1 week each at 40%, 60%, 80%, 30%, 0% and 40% RH
Procedure: The XRPD analyses were carried out on a PANanalytical X'pert Pro X-ray powder diffractometer using Cu Kα radiation. The instrument was equipped with a X'Celerator detector. A theta-two theta continuous scan from 2.5 degrees 2 theta to 40 degrees 2 theta was used. Each sample was prepared for analysis by placing it in a quartz sample holder. The XPRD patterns are reported in terms of degrees 2 theta (°2θ, accuracy ±0.1°), diffraction peak intensity (height, [cts]), full width at half maximum (FWHM, [°2θ]), interatomic spacing in angstroms (d-spacing, [Å]), and relative intensities (%). The relative intensity is recorded as the ratio of the peak intensity to that of the most intense peak.
In order to check its thermodynamic stability, CHF 4226 crystal form D was stored at room temperature under different relative humidity (RH) conditions: • 40% RH. and 25° C. for 1 week • 60% RH. and 25° C. for 1 week • 80% RH and 25° C. for 1 week • 60% RH and 25° C. for 1 week • 40% RH and 25° C. for 1 week • 30% RH and 25° C. for 1 week • 0% RH. and 25° C. for 1 week • 40% RH and 25° C. for 1 week The thermodynamic stability of all the samples was checked by recording their XPRD pattern.

## COc1ccc(C[C@@H](C)NC[C@H](O)c2ccc(O)c3[nH]c(=O)ccc23)cc1.Cl [CHF 4226 crystal form D, 8-hydroxy-5-[(1R)-1-hydroxy-2-[[(1R)-2-(4-methoxyphenyl)-1-methylethyl]amino]ethyl]-2(1H)-quinolinone monohydrochloride]
  thermodynamic stability (XPRD pattern after storage): stable features under all stability screening conditions
